Results on five compounds are retold here after article PMC4643674 (Journal of medicinal chemistry, 2013).

In general, Papp B→A refers to the apparent permeability from the basolateral to the apical side of a cell layer. The microsomal CLint is a measure of how fast metabolising enzymes remove a compound, apart from limits set by blood flow. Higher therefore signals rapid turnover. The term IC50 denotes the concentration needed to halve the response being measured. Low readings indicate greater potency, high ones weaker potency. The term efflux ratio denotes a quotient of directional permeabilities that is used to spot active efflux. The Papp A→B is the apparent permeability from the apical to the basolateral side of a cell layer. Read a high Papp A→B as ready permeation. By half-life is commonly meant how long it takes for the measured level to halve. A lower half-life goes with fast loss. The amount remaining is the share of the starting amount still present when the sample was taken.

Data set [1] concerns GluN2D receptor mutants (Q801Y, L705F and A752V). Put plainly: inhibition of mutant GluN2D receptors. The data set is classed as cell-based. The note with it: mutants vs wild type GluN2D; Figure S1.
Data set [2] has as its system 42 different ion channels, G-protein coupled receptors, and transporters. Description: NIMH PDSP primary binding assay. The note with it: 5 µM compound.
A short description of another data set: plasma stability, human. The note with it: two-hour time-course, Figure S2. The data set is classed as in vitro ADME.
A further data set can be described thus: plasma stability, rat. The data set is classed as in vitro ADME. The following applies: two-hour time-course, Figure S2.
The nature of a further data set: plasma stability, mouse. The following applies: two-hour time-course, Figure S2. The data set is classed as in vitro ADME.
The next data set relates to MDR1-MDCK. Description: MDR1-MDCK permeability assay. It counts as in vitro ADME, canine. The following applies: A-to-B; 5 µM; 120 minutes.
A further data set concerns P-gp (MDR1). Description: MDR1-MDCK permeability assay. It counts as in vitro ADME, canine. The following applies: dog; for Papp B→A at 120 min, 5 µM / Papp A→B at 120 min, 5 µM: MDCK-MDR1, pH 7.4, Papp; for recovery at 120 min, 5 µM: MDCK-MDR1, pH 7.4, Recovery (%).
Data set [3] is described as follows: human liver microsomal stability. It counts as in vitro ADME. On the technique in general: Microsomes from liver hold many membrane-bound enzymes, among them those of drug oxidation.
A further data set deals with GluA3 (Rattus norvegicus, UniProt P19492). Put plainly: off-target two-electrode voltage clamp, GluA3. The data set is classed as cell-based. The note with it: read-out: ITEST / ICONTROL (mean ± SEM, %). (In general: In two-electrode clamp one electrode senses voltage and the other passes current.)
A further data set deals with GluK1 (Rattus norvegicus, UniProt P22756). Description: off-target two-electrode voltage clamp, GluK1. The data set is classed as cell-based. The note with it: read-out: ITEST / ICONTROL (mean ± SEM, %).
Chain of GluK1 (P22756 31-949): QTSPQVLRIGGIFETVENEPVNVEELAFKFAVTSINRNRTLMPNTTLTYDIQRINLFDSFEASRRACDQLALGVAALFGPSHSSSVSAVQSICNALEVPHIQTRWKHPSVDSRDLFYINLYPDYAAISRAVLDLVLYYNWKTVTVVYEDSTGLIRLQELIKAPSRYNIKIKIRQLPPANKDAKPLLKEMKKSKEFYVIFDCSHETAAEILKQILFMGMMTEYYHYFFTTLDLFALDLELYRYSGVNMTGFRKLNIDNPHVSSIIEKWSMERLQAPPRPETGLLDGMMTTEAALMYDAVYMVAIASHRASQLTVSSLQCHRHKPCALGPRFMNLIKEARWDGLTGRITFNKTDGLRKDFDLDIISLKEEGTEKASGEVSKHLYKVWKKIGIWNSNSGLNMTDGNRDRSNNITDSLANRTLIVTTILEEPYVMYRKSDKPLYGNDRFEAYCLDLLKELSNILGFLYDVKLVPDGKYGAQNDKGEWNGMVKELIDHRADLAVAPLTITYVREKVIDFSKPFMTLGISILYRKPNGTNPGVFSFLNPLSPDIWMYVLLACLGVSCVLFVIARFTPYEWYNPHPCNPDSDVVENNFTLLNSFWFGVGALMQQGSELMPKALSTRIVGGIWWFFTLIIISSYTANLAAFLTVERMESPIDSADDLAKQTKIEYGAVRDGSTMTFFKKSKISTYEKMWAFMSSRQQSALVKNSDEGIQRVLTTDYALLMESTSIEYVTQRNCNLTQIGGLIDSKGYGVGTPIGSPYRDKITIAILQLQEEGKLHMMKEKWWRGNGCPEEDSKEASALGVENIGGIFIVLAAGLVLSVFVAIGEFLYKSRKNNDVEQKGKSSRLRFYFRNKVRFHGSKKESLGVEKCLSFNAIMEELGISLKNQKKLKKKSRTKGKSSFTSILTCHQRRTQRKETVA
The target of the next data set is GluN1/GluN2A (Rattus norvegicus, UniProt P35439+Q00959). The data set is classed as cell-based.
Chain of GluN1/GluN2A (Q00959 23-1464, other chains not shown): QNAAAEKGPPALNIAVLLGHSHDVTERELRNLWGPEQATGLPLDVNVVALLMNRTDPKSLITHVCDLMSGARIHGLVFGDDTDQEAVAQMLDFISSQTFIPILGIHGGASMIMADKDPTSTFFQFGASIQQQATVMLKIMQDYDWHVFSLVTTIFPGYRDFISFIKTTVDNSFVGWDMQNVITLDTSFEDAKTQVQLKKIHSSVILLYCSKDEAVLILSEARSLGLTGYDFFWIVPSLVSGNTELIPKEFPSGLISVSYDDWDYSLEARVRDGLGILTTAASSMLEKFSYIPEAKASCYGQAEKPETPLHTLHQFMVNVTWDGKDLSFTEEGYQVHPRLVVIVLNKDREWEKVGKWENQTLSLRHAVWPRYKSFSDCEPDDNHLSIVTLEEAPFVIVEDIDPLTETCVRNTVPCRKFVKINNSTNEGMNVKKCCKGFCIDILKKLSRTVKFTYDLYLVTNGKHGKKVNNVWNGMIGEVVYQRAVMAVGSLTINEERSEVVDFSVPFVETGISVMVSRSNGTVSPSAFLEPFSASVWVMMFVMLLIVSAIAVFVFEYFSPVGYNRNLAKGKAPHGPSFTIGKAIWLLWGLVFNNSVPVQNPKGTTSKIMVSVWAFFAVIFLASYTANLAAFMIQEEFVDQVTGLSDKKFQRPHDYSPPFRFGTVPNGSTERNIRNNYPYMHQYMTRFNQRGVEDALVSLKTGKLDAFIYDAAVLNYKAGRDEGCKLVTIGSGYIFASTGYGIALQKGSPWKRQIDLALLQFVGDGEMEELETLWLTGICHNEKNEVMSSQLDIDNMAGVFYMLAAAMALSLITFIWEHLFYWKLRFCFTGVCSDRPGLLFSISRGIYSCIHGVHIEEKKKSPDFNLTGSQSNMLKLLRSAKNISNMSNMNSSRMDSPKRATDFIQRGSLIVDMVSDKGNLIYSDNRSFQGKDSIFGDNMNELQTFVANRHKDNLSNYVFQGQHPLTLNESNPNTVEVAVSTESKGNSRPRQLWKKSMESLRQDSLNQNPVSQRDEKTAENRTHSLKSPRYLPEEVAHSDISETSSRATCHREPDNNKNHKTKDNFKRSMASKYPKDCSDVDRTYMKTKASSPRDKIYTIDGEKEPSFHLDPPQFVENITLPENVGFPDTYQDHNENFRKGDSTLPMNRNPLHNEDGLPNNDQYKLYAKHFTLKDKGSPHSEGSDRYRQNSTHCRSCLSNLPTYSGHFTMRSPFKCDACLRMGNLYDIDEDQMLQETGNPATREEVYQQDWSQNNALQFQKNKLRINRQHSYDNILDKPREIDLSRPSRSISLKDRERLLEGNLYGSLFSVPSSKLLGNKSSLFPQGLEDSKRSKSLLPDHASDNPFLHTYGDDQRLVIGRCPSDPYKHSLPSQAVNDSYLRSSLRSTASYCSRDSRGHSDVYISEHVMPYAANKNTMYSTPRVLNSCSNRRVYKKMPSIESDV
The target in a further data set is GluN1/GluN2B (Rattus norvegicus, UniProt P35439+Q00960). It counts as cell-based.
Chain of GluN1/GluN2B (Q00960 27-1482, other chains not shown): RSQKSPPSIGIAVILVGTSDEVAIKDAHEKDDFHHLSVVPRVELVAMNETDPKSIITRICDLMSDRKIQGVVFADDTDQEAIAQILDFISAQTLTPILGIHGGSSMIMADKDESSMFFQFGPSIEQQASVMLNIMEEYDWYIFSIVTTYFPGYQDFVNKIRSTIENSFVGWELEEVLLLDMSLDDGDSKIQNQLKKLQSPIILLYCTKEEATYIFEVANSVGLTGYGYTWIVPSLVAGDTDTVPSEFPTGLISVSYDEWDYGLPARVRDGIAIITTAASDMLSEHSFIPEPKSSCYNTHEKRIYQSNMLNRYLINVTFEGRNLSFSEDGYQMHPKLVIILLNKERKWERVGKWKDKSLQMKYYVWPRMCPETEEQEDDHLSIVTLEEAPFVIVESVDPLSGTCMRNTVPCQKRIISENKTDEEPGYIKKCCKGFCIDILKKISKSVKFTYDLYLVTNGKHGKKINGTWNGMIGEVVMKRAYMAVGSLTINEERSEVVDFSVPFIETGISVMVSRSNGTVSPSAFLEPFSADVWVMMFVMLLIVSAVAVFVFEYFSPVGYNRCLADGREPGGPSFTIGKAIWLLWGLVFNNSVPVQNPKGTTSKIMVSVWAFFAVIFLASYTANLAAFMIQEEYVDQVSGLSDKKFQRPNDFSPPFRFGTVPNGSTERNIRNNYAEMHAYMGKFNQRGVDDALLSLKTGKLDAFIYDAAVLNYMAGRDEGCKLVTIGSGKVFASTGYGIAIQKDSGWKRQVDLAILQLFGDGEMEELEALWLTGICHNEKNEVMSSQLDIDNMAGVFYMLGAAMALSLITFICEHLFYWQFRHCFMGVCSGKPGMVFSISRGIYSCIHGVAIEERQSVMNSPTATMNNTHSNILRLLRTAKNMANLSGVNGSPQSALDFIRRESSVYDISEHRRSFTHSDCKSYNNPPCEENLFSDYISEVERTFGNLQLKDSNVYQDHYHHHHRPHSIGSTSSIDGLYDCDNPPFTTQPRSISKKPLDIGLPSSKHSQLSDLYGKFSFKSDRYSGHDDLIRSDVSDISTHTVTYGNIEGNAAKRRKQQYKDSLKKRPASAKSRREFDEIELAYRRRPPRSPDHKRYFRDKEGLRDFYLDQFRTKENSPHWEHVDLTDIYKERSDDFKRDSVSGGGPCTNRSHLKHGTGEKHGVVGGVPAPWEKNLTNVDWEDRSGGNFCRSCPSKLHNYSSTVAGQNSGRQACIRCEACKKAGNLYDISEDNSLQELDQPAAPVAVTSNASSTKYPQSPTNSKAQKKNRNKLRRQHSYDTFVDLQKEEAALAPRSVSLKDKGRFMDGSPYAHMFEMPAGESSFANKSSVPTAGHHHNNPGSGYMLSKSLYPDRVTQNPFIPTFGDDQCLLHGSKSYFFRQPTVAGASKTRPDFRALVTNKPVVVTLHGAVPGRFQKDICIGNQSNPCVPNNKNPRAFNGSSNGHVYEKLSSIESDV
Another data set concerns the target GluN1/GluN2C (Rattus norvegicus, UniProt P35439+Q00961). It counts as cell-based.
In data set [4] the target is GluN1/GluN2D (Rattus norvegicus, UniProt P35439+Q62645). It counts as cell-based.
The next data set concerns NMDA receptor subtypes. Put plainly: two-electrode voltage clamp, activity statements without named subtype. The data set is classed as cell-based. The following applies: receptor subtype not named.
For data set [5], the target named is GluN1/GluN2D (Rattus norvegicus, UniProt Q62645). It counts as cell-based.
Chain of GluN1/GluN2D (Rattus norvegicus, UniProt Q62645) (Q62645 28-1323, other chains not shown): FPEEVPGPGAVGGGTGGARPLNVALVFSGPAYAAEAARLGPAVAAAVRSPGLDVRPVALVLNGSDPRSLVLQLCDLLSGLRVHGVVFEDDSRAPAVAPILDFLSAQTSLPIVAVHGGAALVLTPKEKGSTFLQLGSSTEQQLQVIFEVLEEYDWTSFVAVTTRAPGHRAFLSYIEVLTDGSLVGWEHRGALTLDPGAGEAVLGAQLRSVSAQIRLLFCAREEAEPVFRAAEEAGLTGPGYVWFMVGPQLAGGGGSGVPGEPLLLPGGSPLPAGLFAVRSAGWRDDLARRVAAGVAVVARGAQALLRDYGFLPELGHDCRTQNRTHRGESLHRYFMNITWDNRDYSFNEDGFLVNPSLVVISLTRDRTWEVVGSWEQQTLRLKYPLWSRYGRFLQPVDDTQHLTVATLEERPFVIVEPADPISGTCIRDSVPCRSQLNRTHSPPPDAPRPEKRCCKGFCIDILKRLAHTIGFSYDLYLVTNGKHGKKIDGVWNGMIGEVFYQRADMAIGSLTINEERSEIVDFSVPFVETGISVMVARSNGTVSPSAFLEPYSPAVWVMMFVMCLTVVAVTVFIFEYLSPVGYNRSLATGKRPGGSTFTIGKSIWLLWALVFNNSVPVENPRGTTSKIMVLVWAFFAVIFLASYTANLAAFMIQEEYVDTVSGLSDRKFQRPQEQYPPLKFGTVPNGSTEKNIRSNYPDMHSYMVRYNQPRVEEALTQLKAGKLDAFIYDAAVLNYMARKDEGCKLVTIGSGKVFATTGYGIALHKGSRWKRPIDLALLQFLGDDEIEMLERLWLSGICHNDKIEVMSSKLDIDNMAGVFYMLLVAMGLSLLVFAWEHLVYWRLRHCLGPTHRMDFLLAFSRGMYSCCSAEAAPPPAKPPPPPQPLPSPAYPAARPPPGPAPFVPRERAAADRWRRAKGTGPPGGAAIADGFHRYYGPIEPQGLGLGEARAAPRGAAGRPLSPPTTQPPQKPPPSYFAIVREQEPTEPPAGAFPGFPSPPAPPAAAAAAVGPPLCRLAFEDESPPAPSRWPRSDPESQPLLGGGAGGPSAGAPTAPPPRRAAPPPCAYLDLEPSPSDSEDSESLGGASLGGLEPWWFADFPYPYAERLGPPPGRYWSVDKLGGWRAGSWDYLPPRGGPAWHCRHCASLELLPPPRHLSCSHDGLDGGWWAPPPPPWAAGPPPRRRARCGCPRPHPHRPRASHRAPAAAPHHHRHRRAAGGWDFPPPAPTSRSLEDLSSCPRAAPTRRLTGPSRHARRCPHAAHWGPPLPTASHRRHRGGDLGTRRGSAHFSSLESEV
[6] abbreviates: human, liver microsomes, pH 7.4.

In the case of `O=C(O)CCC(=O)N1N=C(c2c(-c3ccc(Cl)cc3)c3ccccc3[nH]c2=O)CC1c1ccc(Cl)cc1` (stereo not drawn) [Compound 26, 4-{5-(4-Chlorophenyl)-3-[4-(4-chlorophenyl)-2-oxo-1,2-dihydroquinolin-3-yl]-4,5-dihydro-1H-pyrazol-1-yl}-4-oxobutanoic acid], the “effect of mutations on degree of inhibition” value in data set [1] was “significantly reduced the degree of inhibition”. The “effect in primary binding assay” value in [2] is given as “minimal effect”. In addition, the plasma stability entry was “minimal degradation” in “plasma stability, human”; “minimal degradation” in “plasma stability, rat”; “minimal degradation” in the data set “plasma stability, mouse”. Moreover, in the data set with MDR1-MDCK, the “Papp, Avg” value is given as 0.47 10^−6cm/s. For the same compound, the Papp B→A at 120 min, 5 µM was determined as 33.4 ×10⁻⁶ cm/s with P-gp (MDR1) (determination 1, B-to-A) and 17.9 ×10⁻⁶ cm/s with P-gp (MDR1) (determination 2, B-to-A). In data set [3] (setting [6]), this compound showed a microsomal CLint at 1 µM of under 20 µL/min/mg. The “degradation in human liver microsomes (in words)” value in data set [3] (over the 60 minute assay) is “minimal degradation”.
For `O=C(O)/C=C/C(=O)N1N=C(c2c(-c3ccc(Br)cc3)c3ccccc3[nH]c2=O)CC1c1ccc(Cl)cc1` (stereo not drawn) [Compound 58, (E)-4-{3-[4-(4-Bromophenyl)-2-oxo-1,2-dihydroquinolin-3-yl]-5-(4-chlorophenyl)-4,5-dihydro-1H-pyrazol-1-yl}-4-oxobut-2-enoic acid], the remaining activity at 3 µM on GluA3 was determined as 100 ± 1.1%; at GluK1 it was 100 ± 4.4%. Besides, in data set [2], the “effect in primary binding assay” value was “minimal effect”. Besides, the plasma stability entry is “minimal degradation” in the data set “plasma stability, human”; “minimal degradation” in the data set “plasma stability, rat”; “minimal degradation” in “plasma stability, mouse”.
With `O=C(CCCO)N1N=C(c2c(-c3ccc(Cl)cc3)c3ccccc3[nH]c2=O)CC1c1ccc(Cl)cc1` (stereo not drawn) [Compound 64, 4-(4-Chlorophenyl)-3-[5-(4-chlorophenyl)-1-(4-hydroxybutanoyl)-4,5-dihydro-1H-pyrazol-3-yl]quinolin-2(1H)-one], the IC50 against GluN1/GluN2A was determined as 62 µM; against GluN1/GluN2B it was 33 µM; against GluN1/GluN2C it was 1.7 µM; against GluN1/GluN2D [4], 0.69 µM. The plasma stability entry was “minimal degradation” in “plasma stability, human”; “minimal degradation” in the data set “plasma stability, rat”; “minimal degradation” in the data set “plasma stability, mouse”. For the same compound, the efflux ratio at 120 min, 5 µM in the data set with P-gp (MDR1) (MDCK-MDR1, pH 7.4) stood at 26. Also, the Papp B→A at 120 min, 5 µM amounted to 64.5 ×10⁻⁶ cm/s in the data set with P-gp (MDR1) (Avg, B-to-A); 66.2 ×10⁻⁶ cm/s in the data set with P-gp (MDR1) (determination 1, B-to-A); 62.7 ×10⁻⁶ cm/s with P-gp (MDR1) (determination 2, B-to-A). The Papp A→B at 120 min, 5 µM came out at 2.45 ×10⁻⁶ cm/s in the data set on P-gp (MDR1) (determination 1, A-to-B) and 2.48 ×10⁻⁶ cm/s in the data set on P-gp (MDR1) (determination 2, A-to-B). Also, the figures for the recovery at 120 min, 5 µM in the data set on P-gp (MDR1) (A-to-B) and in the data set on P-gp (MDR1) (B-to-A) were 43% and 73%, respectively. For the same compound, in [3] (setting [6]), the half-life at 1 µM was 13 min. In data set [3] (setting [6]), this compound yielded a microsomal CLint at 1 µM of 110 µL/min/mg. This compound gave a fraction remaining at 0 h, 1 µM in [3] (setting [6]) of 100%. In data set [3] (setting [6]), this compound showed a fraction remaining at 0.5 h, 1 µM of 24%. Also, in data set [3] (setting [6]), the amount remaining at 1 h, 1 µM worked out at 6.5%.
In the case of `O=C(CCCF)N1N=C(c2c(-c3ccc(Cl)cc3)c3ccccc3[nH]c2=O)CC1c1ccc(Cl)cc1` (stereo not drawn) [Compound 68, 4-(4-Chlorophenyl)-3-[5-(4-chlorophenyl)-1-(4-fluorobutanoyl)-4,5-dihydro-1H-pyrazol-3-yl]quinolin-2(1H)-one], the “activity (in words)” value with NMDA receptor subtypes was “inactive”. The Papp A→B at 120 min, 5 µM was determined as 4.51 ×10⁻⁶ cm/s with P-gp (MDR1) (determination 1, A-to-B) and 3.24 ×10⁻⁶ cm/s with P-gp (MDR1) (determination 2, A-to-B). The Papp B→A at 120 min, 5 µM in the data set with P-gp (MDR1) (determination 1, B-to-A) was found to be 9.32 ×10⁻⁶ cm/s; in the data set on P-gp (MDR1) (determination 2, B-to-A) it was 9.72 ×10⁻⁶ cm/s. In data set [3] (setting [6]), this compound registered a microsomal CLint at 1 µM of 40 µL/min/mg. The share remaining at 0 h, 1 µM in data set [3] (setting [6]) stood at 100%.
As for `O=C(O)CCC(=O)N1N=C(c2c(-c3ccc(Cl)cc3)c3ccccc3[nH]c2=O)C[C@H]1c1ccc(Cl)cc1` [Compound 69], the “selectivity over other NMDA receptor subunits” value at GluN1/GluN2D [5] (GluN2D/GluN2C vs other subunits) is on record as “over 70 fold”. The “fold more potent at GluN2D-containing receptors than the R-enantiomer, 70” value on GluN1/GluN2D [5] (S-enantiomer vs R-enantiomer) was 11 fold.
